Consider one molecule from US20100152434A1, “Protein Kinase-binding Nucleosides and Associated Methods” (priority 2007, published 2010).

What all share (assay): Ambit kinase phage display ATP-binding-site ligand binding assay
One test deals with RPS6KA6(kin.Dom.2) (Homo sapiens, UniProt Q9UK32). As to conditions: read-out: percent inhibition of binding.
The target of a further test is MST1 (Homo sapiens, UniProt Q13043). As to conditions: read-out: percent inhibition of binding.
A further test deals with CSNK2A2 (Homo sapiens, UniProt P19784). The settings on record: read-out: % Inhibition of binding to ATP-binding-site ligand.
For the next test, the target named is CD2 L2 (Homo sapiens, UniProt Q9UQ88). As to conditions: read-out: percent inhibition of binding.
The target of a further test is TYK2(Kin.Dom.1) (Homo sapiens, UniProt P29597). The settings on record: read-out: percent inhibition of binding.
The target of another test is AURKB (Homo sapiens, UniProt Q96GD4). As to conditions: read-out: percent inhibition of binding.
The target of the next test is PIK3CG (Homo sapiens, UniProt P48736). As to conditions: read-out: percent inhibition of binding.
For another test, the target named is MARK3 (Homo sapiens, UniProt P27448). The settings on record: read-out: % Inhibition of binding to ATP-binding-site ligand.
Chain of MARK3 (P27448 whole entry, species assumed): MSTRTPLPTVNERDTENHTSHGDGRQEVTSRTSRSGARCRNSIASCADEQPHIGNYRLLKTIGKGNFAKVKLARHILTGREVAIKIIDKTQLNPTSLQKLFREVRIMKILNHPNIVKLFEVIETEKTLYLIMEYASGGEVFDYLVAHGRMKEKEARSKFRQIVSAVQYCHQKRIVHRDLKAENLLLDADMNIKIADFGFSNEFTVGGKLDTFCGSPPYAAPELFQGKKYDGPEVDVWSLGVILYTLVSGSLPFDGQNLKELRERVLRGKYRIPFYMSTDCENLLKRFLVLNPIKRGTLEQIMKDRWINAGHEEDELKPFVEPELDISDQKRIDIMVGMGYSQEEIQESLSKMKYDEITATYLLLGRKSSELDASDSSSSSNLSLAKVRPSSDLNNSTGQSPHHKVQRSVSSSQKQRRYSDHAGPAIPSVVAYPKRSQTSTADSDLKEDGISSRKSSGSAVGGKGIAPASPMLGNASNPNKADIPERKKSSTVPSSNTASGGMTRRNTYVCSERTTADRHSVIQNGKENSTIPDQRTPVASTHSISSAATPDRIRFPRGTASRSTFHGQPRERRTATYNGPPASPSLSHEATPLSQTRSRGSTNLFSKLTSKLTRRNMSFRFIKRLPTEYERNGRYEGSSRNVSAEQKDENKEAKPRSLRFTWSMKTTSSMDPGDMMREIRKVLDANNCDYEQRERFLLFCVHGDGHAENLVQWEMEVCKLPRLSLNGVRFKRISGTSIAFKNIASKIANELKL

Chain of CSNK2A2 (P19784 whole entry): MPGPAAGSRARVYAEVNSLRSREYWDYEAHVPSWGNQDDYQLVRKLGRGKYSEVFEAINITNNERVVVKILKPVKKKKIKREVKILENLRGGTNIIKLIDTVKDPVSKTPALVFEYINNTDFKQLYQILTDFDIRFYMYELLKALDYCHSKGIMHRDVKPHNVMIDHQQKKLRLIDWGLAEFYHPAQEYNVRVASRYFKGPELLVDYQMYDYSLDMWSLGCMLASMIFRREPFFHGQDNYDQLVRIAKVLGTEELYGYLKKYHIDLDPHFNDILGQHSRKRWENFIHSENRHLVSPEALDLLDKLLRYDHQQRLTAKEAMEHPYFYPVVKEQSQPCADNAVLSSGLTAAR
Chain of RPS6KA6(kin.Dom.2) (Q9UK32 426-683 limits assumed): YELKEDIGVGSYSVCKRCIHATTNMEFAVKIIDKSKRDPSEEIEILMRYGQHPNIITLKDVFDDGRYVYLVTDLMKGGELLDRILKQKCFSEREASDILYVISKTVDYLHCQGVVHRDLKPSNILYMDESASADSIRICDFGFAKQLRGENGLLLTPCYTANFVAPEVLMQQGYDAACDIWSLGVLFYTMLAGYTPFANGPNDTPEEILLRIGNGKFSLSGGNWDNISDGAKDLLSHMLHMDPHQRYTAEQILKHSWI
Chain of PIK3CG (P48736 whole entry): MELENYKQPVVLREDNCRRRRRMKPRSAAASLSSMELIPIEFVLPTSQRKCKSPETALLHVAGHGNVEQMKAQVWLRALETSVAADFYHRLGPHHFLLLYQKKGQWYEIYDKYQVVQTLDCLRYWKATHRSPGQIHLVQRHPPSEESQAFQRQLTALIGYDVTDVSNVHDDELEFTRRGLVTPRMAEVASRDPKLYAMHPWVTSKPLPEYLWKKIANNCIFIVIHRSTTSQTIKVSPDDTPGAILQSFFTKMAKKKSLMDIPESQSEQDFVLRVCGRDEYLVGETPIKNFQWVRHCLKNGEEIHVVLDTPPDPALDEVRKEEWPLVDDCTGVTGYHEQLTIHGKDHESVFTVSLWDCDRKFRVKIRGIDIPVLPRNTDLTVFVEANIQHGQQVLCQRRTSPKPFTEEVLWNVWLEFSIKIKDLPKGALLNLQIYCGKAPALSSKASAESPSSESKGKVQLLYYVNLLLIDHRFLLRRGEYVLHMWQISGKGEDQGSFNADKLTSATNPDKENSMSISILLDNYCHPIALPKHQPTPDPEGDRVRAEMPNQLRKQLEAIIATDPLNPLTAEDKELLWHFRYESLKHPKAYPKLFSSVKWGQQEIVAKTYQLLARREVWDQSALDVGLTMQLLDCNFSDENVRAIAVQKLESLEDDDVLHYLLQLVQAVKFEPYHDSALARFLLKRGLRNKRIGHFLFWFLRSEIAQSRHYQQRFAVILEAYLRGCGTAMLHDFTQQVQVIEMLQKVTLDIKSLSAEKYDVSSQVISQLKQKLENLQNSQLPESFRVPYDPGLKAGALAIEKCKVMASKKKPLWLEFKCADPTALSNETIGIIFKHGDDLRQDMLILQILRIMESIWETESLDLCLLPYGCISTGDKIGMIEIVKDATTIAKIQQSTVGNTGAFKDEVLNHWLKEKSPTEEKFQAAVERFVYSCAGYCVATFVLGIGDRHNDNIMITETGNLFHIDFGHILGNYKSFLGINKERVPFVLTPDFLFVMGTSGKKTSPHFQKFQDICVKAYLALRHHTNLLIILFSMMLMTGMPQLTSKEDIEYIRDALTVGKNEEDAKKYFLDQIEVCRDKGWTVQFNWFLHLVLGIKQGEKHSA
Chain of TYK2(Kin.Dom.1) (P29597 589-875 limits assumed): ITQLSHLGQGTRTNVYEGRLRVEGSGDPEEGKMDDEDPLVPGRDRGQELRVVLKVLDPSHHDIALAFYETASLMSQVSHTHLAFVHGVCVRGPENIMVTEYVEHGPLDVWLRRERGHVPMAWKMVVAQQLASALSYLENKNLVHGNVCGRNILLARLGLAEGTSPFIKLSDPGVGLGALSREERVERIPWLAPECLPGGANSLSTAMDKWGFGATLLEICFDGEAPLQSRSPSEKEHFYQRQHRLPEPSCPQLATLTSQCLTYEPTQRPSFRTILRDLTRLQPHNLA
Chain of AURKB (Q96GD4 whole entry): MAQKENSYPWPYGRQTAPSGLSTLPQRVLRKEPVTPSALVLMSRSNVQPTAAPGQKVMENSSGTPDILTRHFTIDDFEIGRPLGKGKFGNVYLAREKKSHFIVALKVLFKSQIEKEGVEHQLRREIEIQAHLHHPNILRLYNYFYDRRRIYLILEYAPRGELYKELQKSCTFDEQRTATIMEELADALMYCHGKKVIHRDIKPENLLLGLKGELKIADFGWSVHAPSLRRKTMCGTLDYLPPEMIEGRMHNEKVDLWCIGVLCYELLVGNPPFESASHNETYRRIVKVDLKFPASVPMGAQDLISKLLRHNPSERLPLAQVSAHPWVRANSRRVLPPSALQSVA
Chain of CD2 L2 (Q9UQ88 whole entry): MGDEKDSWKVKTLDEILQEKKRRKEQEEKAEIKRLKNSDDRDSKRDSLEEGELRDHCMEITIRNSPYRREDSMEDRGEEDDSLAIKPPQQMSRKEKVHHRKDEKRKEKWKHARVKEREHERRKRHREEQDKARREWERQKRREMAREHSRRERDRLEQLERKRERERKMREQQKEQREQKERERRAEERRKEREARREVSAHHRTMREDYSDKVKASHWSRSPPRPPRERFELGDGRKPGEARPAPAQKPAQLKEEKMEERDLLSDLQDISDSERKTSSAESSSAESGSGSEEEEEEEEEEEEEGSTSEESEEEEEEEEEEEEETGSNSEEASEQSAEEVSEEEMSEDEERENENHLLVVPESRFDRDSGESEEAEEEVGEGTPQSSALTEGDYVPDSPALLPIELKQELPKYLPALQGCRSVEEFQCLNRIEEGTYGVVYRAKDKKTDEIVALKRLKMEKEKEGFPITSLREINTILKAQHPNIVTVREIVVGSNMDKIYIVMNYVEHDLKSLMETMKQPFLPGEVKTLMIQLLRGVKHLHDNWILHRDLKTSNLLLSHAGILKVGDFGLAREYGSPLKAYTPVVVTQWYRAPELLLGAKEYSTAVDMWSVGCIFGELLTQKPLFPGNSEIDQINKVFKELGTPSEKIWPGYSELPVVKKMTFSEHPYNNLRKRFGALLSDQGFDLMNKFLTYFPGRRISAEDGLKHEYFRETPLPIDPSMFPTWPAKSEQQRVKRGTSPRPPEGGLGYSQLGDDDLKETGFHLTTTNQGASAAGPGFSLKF
Chain of MST1 (Q13043 whole entry): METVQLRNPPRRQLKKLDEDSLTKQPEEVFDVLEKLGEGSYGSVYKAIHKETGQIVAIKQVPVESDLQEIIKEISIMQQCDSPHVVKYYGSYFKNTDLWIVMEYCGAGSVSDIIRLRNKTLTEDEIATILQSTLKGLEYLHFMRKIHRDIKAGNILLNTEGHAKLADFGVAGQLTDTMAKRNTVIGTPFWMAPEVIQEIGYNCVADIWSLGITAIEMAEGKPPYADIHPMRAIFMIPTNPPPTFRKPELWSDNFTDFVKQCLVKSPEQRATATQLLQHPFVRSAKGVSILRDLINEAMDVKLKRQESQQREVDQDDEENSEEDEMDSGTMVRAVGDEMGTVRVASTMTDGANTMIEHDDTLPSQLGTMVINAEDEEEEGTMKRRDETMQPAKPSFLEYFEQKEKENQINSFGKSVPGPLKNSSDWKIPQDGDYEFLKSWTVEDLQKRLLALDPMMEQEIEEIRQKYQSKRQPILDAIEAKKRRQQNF
Text for AURKB: (§1) In this assay, protein kinases are cloned into T7 bacteriophage which express the kinase fusion proteins on the phage capsid. T7 kinase-tagged phage are then screened for binding to ATP-binding-site ligands that have been immobilized on a solid support. Phage are screened for binding to the anchored ligands both in the presence of test compound and in its absence (control). Elution of the bound phage by free ligand (ATP-binding site ligand that is not immobilized on a solid support) followed by determination of the phage titre provides a reliable measure of the ability of test compounds to block binding of target kinases to resin-bound ATP-binding-site ligands.
(§2) T7 kinase-tagged phage strains were grown in parallel in microtiter plates in a proprietary bacterial host derived from E. Coli strain BL21. E. Coli were grown to a log phase, infected with T7 kinase-tagged phage, and incubated while shaking at 32° C. until bacterial lysis (approx. 90 min). Lysates were centrifuged (6,000 g) and filtered (0.2 μm). Small molecule ATP-binding-site-specific ligands were anchored to solid supports via a two step process beginning with biotin conjugation followed by treatment of the biotin/small molecule conjugate with streptavidin-coated magnetic beads. […] The phage titre of the eluates was measured by quantitative PCR or by plaque assays. […]
Text for CD2 L2: as §1, §2
Text for CSNK2A2: (§3) This assay is based on ligand-affinity/protein kinase phage display and was employed essentially as described by Fabian et. al [Nature Biotech. […] In this assay, protein kinases are cloned into T7 bacteriophage which express the kinase fusion proteins on the phage capsid. T7 kinase-tagged phage are then screened for binding to ATP-binding-site ligands that have been immobilized on a solid support. Phage are screened for binding to the anchored ligands both in the presence of test compound and in its absence (control). Elution of the bound phage by free ligand (ATP-binding site ligand that is not immobilized on a solid support) followed by determination of the phage titre provides a reliable measure of the ability of test compounds to block binding of target kinases to resin-bound ATP-binding-site ligands.
(§4) T7 kinase-tagged phage strains were grown in parallel in microtiter plates in a proprietary bacterial host derived from E. Coli strain BL21. E. Coli were grown to a log phase, infected with T7 kinase-tagged phage, and incubated while shaking at 32° C. until bacterial lysis (approx. 90 min). Lysates were centrifuged (6,000 g) and filtered (0.2 μm). […] The phage titre of the eluates was measured by quantitative PCR or by plaque assays. […]
Text for MARK3: as §1, §2
Text for MST1: as §1, §2
Text for PIK3CG: as §3, §4
Text for RPS6KA6(kin.Dom.2): as §3, §4
Text for TYK2(Kin.Dom.1): as §1, §2

As to `CCOC(=O)C[C@@H]1C(O[Si](C)(C)C(C)(C)C)[C@H](n2cnc3c(NC(=O)Nc4ccccc4)ncnc32)O[C@@H]1CNC(=O)NC` (some centres unmarked) [Compound 10], the inhibition at 10 µM was 20 to 29% at RPS6KA6(kin.Dom.2); 20 to 29% at MST1; 31% on CSNK2A2; 20 to 29% at CD2 L2; 20 to 29% on TYK2(Kin.Dom.1); 20 to 29% at AURKB. Also, the results for the inhibition at 10 µM at PIK3CG and at MARK3 were 20 to 29% and 34%, respectively.
